From patent publication US5461034A, “Osteogenic growth polypeptides identified from regenerating bone marrow” (Yissum Research Development Company of the Hebrew …, priority 1993, dated 1995)

Test system: ROS 17/2 cells
Assay: Anti-PDGF antibody neutralization in ROS 17/2 cells
Assay type: cell-based, rat
Conditions: intermediate doses of HBMCM preparations
Procedure: Anti-PDGF antibody neutralization experiments were carried out with polyclonal antiserum prepared in rabbits against PDGF. PDGF or HBMCM-derived preparations were added to ROS 17/2 cells in the presence or absence of antibody and examined for effects on [^3 H]TdR incorporation.

PDGF
effect of polyclonal anti-PDGF antibodies on mitogenic effect: inhibited PDGF-stimulated replication
